Assay results from patent US10072038B2, “Crystal of ammonium N-acetylneuraminate anhydrate, and process for producing same” (KYOWA HAKKO BIO CO., LTD., priority 2015, dated 2018).

Experiments:
[1] = Measurement of degree of solubility in water (HPLC of supernatant); format: physicochemical; details: FIG. 5; compared with crystal of known NeuAc dihydrate
Experimental: (2) Measurement of Degree of Solubility
A crystal of NeuAc ammonium salt anhydrate, or a crystal of known NeuAc dihydrate was added to water adjusted to the respective temperatures until each crystal remained undissolved and after keeping the solution for a sufficient time under stirring, the supernatant containing no crystal was collected, and the concentration of NeuAc therein was measured using the following HPLC conditions.
Guard column: Shodex SUGAR SH-G ϕ6.0×50 mm
Column: SUGAR SH1011 ϕ8.0×300 mm×2 columns in series
Column temperature: 60° C.
Buffer: an aqueous 0.005 mol/L sulfuric acid solution
Detector: UV detector (wavelength: 210 nm)
The degrees of solubility in water of the crystal of NeuAc ammonium salt anhydrate obtained above and a crystal of NeuAc dihydrate are illustrated in FIG. 5.

[2] = pH of aqueous solution of the crystal; format: physicochemical; details: aqueous solution at 100 g/L in terms of NeuAc ammonium salt
Experimental: As for the pH, an aqueous solution at 100 g/L in terms of NeuAc ammonium salt was measured.

[3] = Weight change (moisture absorption) under an atmosphere of 25° C. and a humidity of 60%; format: physicochemical; details: humidity 60%; for weight increase due to moisture absorption: up to 24 h
Experimental: With respect to the crystal of NeuAc ammonium salt anhydrate and the noncrystalline amorphous NeuAc ammonium salt acquired in Reference Example 1, the weight change under an atmosphere of 25° C. and a humidity of 60% was compared, and the results are shown in Table 5.

[4] = Degree of coloration when stored in a closed system at 60° C. (transmittance at 430 nm); format: physicochemical; details: for Transmittance T % 430 nm: stored in closed system at 60° C., solution 100 g/L in terms of an anhydrate, 1 cm
Experimental: With respect to the crystal of NeuAc ammonium salt anhydrate and a crystal of known NeuAc dihydrate, the degree of coloration when stored in a closed system at 60° C. was compared, and the results are shown in Table 8. The degree of coloration is expressed by transmittance T % 430 nm=100×10^−A (A=Abs: 430 nm, 1 cm), which was obtained by dissolving each crystal at 100 g/L in terms of an anhydrate and performing measurement for the solution.

[5] = Stability under high temperature conditions judged from melting point; format: physicochemical; details: inferred from melting point 166.2° C. vs around 105° C. of known monohydrate
Experimental: (5) Measurement of Melting Point
The measurement was performed using Melting Point M-565 (manufactured by BUCHI) according to the instruction book.
In addition, the melting point of the crystal of NeuAc ammonium salt anhydrate is 166.2° C. and is higher than the melting point of around 105° C. of known NeuAc ammonium salt monohydrate salt.

[6] = normal temperature; cited from earlier work
[7] = cited from earlier work

CC(=O)N[C@H]1[C@H]([C@H](O)[C@H](O)CO)OC(O)(C(=O)O)C[C@@H]1O.N (stereo partly drawn) [Crystal of ammonium salt, ammonium N-acetylneuraminate anhydrate]
degree of solubility in water [1]: large degree of solubility compared with the degree of solubility of the crystal of known NeuAc dihydrate | pH ([2]; listed as Example 1): 7.07 | pH ([2]; listed as Example 2): 6.60 | pH ([2]; listed as Example 3): 6.39 | Rate of weight change ([3]; elapsed time 0 h): 0.00% | Rate of weight change ([3]; elapsed time 3 h): −0.08% | Rate of weight change ([3]; elapsed time 7 h): −0.10% | Rate of weight change ([3]; elapsed time 24 h): −0.06% | weight increase due to moisture absorption ([3]; listed as crystal of NeuAc ammonium salt anhydrate): a weight increase was not observed | coloration during storage ([4]; closed system at 60° C., compared with crystal of known NeuAc dihydrate): extremely low | Transmittance T % 430 nm ([4]; 0 days): 99.73% | Transmittance T % 430 nm ([4]; 3 days): 98.87% | Transmittance T % 430 nm ([4]; 6 days): 98.49% | stability under high temperature conditions [5]: stable even under high temperature conditions

CC(=O)N[C@H]1[C@H]([C@H](O)[C@H](O)CO)OC(O)(C(=O)O)C[C@@H]1O (stereo partly drawn) [Dihydrate crystal, N-Acetylneuraminic acid, reference compound]
Transmittance T % 430 nm ([4]; 0 days): 100.1% | Transmittance T % 430 nm ([4]; 3 days): 73.26% | Transmittance T % 430 nm ([4]; 6 days): 50.46% | degree of solubility [6]: about 100 g/L | storage stability (discoloration of crystal and solution) [7]: gradually discolored to dark brown

CC(=O)N[C@H]1[C@H]([C@H](O)[C@H](O)CO)OC(O)(C(=O)O)C[C@@H]1O.N (stereo partly drawn) [Noncrystalline amorphous, NeuAc ammonium salt, reference compound]
Rate of weight change ([3]; elapsed time 3 h, ammonium salt): 6.58% | Rate of weight change ([3]; elapsed time 7 h, ammonium salt): 10.4% | Rate of weight change ([3]; elapsed time 24 h, ammonium salt): 13.5% | weight increase due to moisture absorption ([3]; listed as noncrystalline amorphous NeuAc ammonium salt, ammonium salt): marked weight increase due to moisture absorption | deliquescence ([3]; when 24 hours had passed): deliquesced
